According to publication PMC8480776, “Selenium Derivatives as Promising Therapy for Chagas Disease: In Vitro and In Vivo Studies” (ACS Infectious Diseases, 2021):
Read-outs that look alike come from different tables or passages of the source.

Tests used:
[1] = tested on: T. cruzi epimastigotes, Arequipa strain; assay: Screening against extracellular epimastigotes, Arequipa strain; type: cell-based, Trypanosoma cruzi
[2] = tested on: T. cruzi epimastigotes, SN3 strain; assay: Screening against extracellular epimastigotes, SN3 strain; type: cell-based, Trypanosoma cruzi
[3] = tested on: T. cruzi epimastigotes, Tulahuen strain; assay: Screening against extracellular epimastigotes, Tulahuen strain; type: cell-based, Trypanosoma cruzi
Vero cells = assay: Cytotoxicity test on Vero cells; type: cell-based; conditions: Chlorocebus sabaeus, 48 h + 24 h resazurin, read-out: Toxicity IC50 Vero cell
[4] = tested on: T. cruzi amastigotes, Arequipa strain; assay: Screening against intracellular amastigotes, Arequipa strain; type: cell-based, Trypanosoma cruzi
[5] = tested on: T. cruzi amastigotes, SN3 strain; assay: Screening against intracellular amastigotes, SN3 strain; type: cell-based, Trypanosoma cruzi
[6] = tested on: T. cruzi amastigotes, Tulahuen strain; assay: Screening against intracellular amastigotes, Tulahuen strain; type: cell-based, Trypanosoma cruzi
[7] = tested on: T. cruzi trypomastigotes, Arequipa strain; assay: Screening against bloodstream trypomastigotes, Arequipa strain; type: cell-based, Trypanosoma cruzi
[8] = tested on: T. cruzi trypomastigotes, SN3 strain; assay: Screening against bloodstream trypomastigotes, SN3 strain; type: cell-based, Trypanosoma cruzi
[9] = tested on: T. cruzi trypomastigotes, Tulahuen strain; assay: Screening against bloodstream trypomastigotes, Tulahuen strain; type: cell-based, Trypanosoma cruzi
[10] = tested on: Vero cells infected with T. cruzi Arequipa strain; assay: Infection rate in Vero cells (infected cells), Arequipa strain; type: cell-based; conditions: Trypanosoma cruzi, 72 h of treatment
T. cruzi Arequipa strain = assay: In vivo trypanocidal activity on BALB/c mice (acute and chronic Chagas disease); set-up: species or system Trypanosoma cruzi
Method: (§1) Female BALB/c mice aged 10–12 weeks and with a size of 20–24 g were divided into five groups (n = 3 per group): 0, negative control group (uninfected and untreated mice); I, positive control group (infected and untreated mice); II, BZN group (infected mice treated with BZN); III, 26 group (infected mice treated with 26); and IV, 28 group (infected mice treated with 28).
Mice were infected by intraperitoneal injection of 5 × 10^5 BTs of T. cruzi Arequipa strain per mouse in 200 μL PBS.[42] Subsequently, the treatment was intraperitoneally administered (∼200 μL) once daily for 5 consecutive days.
(§2) The tested selenocompounds and BZN were prepared at 2 mg·mL^–1 in an aqueous suspension vehicle containing 5% (v/v) DMSO and 0.5% (w/v) hydroxypropyl methylcellulose, as previously reported.[52] Compounds (20 mg·kg^–1 per day) were administered for 5 consecutive days (total dosages of 100 mg·kg^–1), and vehicle only was administered in the negative and positive control groups. Treatments began when the infection was confirmed (9 dpi) for acute-phase-treated mice, and when it was established that the animals moved into the chronic phase (100 dpi, for chronic-phase-treated mice; Scheme 1).
[…]. Parasitemia was expressed as parasites·mL^–1.
Immunosuppression was performed by intraperitoneal injection of three doses of 200 mg·kg^–1 of ISOPAC CP at 3–4 day intervals (Scheme 1), as previously reported.[53] Mice were closely monitored for side effects or for secondary infections due to immunosuppression. Within 7 days after the last CP injection, parasitemia reactivation was determined by counting BTs according the procedure described for parasitemia in the acute phase.[42]
On 145 dpi, the mice were euthanized using CO2, followed by exsanguination via cardiac puncture, and blood was collected. […]. In addition, spleens were weighed to assess splenomegaly.[42]
DNA extraction of the post-mortem organs/tissues was performed using Wizard Genomic DNA Purification Kit,[41] and the extracted DNA was subjected to amplification by PCR based on the spliced leader (SL) intergenic region sequence of T. cruzi (for detailed description, see literature reported previously).[55] Finally, the PCR products were resolved by electrophoresis on a 2% agarose gel (containing GelRed nucleic gel stain) for 90 min at 90 V.
Circulating antibodies in serum against both antigens were quantitatively evaluated in triplicate by the ELISA test in 96-well plates using diluted serum samples (1:80 in PBS), as previously described.[41]

[11] = type: in vivo, BALB/c mice; conditions: variation vs control
Method: as §1, §2
Serum samples obtained from blood in several days post-infection (Scheme 1) were sent to the Biochemical Service (University of Granada) to measure a series of biochemical parameters with the commercial Cromakit using a clinical chemistry analyzer (BS-200, Shenzhen Mindray Biomedical Electronics Co., LTD), as previously described.[41]

[12] = tested on: epimastigotes of T. cruzi Arequipa strain; assay: Flow cytometry analysis of nucleic acid levels (acridine orange); type: cell-based, Trypanosoma cruzi; conditions: IC25 concentrations, 72 h
Trypanosoma cruzi Fe-SOD = assay: SOD enzymatic inhibition, Fe-SOD; type: biochemical
[13] = target: T1, human erythrocytes CuZn-SOD (Homo sapiens, UniProt P00441); assay: SOD enzymatic inhibition, CuZn-SOD; type: biochemical
T1 construct: commercial copper/zinc superoxide dismutase (Cu/Zn-SOD) from human erythrocytes (Sigma-Aldrich); purchased Sigma-Aldrich; host or cells: human erythrocytes (natural source)

[14] = IC50 Vero cells/IC50 epimastigotes
[15] = IC50 Vero cells/IC50 amastigotes
[16] = IC50 Vero cells/IC50 trypomastigotes
[17] = 20 mg·kg–1 per day i.p. 5 days from 9 dpi
[18] = 20 mg·kg–1 per day i.p. 5 days from 100 dpi
[19] = 20 mg·kg–1 per day i.p. for 5 days from 9 dpi
[20] = treatment in acute phase, 15th dpi (2 days after treatment)
[21] = treatment in acute phase, necropsy day
[22] = treatment in chronic phase, 106th dpi (2 days after treatment)
[23] = treatment in chronic phase, necropsy day

T1 sequence (P00441 whole entry): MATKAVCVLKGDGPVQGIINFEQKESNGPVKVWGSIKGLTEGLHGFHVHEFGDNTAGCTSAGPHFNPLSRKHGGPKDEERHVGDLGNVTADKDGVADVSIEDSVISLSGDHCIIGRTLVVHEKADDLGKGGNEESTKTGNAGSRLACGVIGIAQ

## N#C[Se]c1ccc(NC(=O)c2ccc(C(F)(F)F)cc2)cc1 [Compound 26]
[1]; [14]
  Selectivity index (SI), epimastigotes, Arequipa strain: 84
[1]; Trypanosoma cruzi, 48 h + 24 h resazurin, read-out: Activity IC50, epimastigote form, Arequipa strain
  IC50: 1.6 ± 0.3 µM
[2]; [14]
  Selectivity index (SI), epimastigotes, SN3 strain: 64
[2]; Trypanosoma cruzi, 48 h + 24 h resazurin, read-out: Activity IC50, epimastigote form, SN3 strain
  IC50: 2.1 ± 0.3 µM
[3]; [14]
  Selectivity index (SI), epimastigotes, Tulahuen strain: 52
[3]; Trypanosoma cruzi, TULAHUEN, 48 h + 24 h resazurin, read-out: Activity IC50, epimastigote form, Tulahuen strain
  IC50: 2.6 ± 0.4 µM
Vero cells
  CC50: 134 ± 11.3 µM
[4]; [15]
  selectivity index (SI), Arequipa strain, am. forms: 25
[4]; Trypanosoma cruzi, amastigotes in Vero cells, 72 h, read-out: activity IC50, Arequipa strain, am. forms
  IC50: 5.4 ± 0.7 µM
[5]; [15]
  selectivity index (SI), SN3 strain, am. forms: 34
[5]; Trypanosoma cruzi, amastigotes in Vero cells, 72 h, read-out: activity IC50, SN3 strain, am. forms
  IC50: 3.9 ± 0.5 µM
[6]; [15]
  selectivity index (SI), Tulahuen strain, am. forms: 27
[6]; Trypanosoma cruzi, TULAHUEN, amastigotes in Vero cells, 72 h, read-out: activity IC50, Tulahuen strain, am. forms
  IC50: 4.9 ± 0.3 µM
[7]; [16]
  selectivity index (SI), Arequipa strain, trypom. forms: 56
[7]; Trypanosoma cruzi, bloodstream trypomastigotes, 24 h + 4 h resazurin, read-out: activity IC50, Arequipa strain, trypom. forms
  IC50: 2.4 ± 0.3 µM
[8]; [16]
  selectivity index (SI), SN3 strain, trypom. forms: 52
[8]; Trypanosoma cruzi, bloodstream trypomastigotes, 24 h + 4 h resazurin, read-out: activity IC50, SN3 strain, trypom. forms
  IC50: 2.5 ± 0.3 µM
[9]; [16]
  selectivity index (SI), Tulahuen strain, trypom. forms: 46
[9]; Trypanosoma cruzi, TULAHUEN, bloodstream trypomastigotes, 24 h + 4 h resazurin, read-out: activity IC50, Tulahuen strain, trypom. forms
  IC50: 2.9 ± 0.2 µM
[10]
  IC50: 22.4 µM
T. cruzi Arequipa strain; [17]
  anti-T. cruzi IgG levels (ELISA), acute phase treatment: lower IgG values than the treated with BZN at the beginning of the treatment
  splenomegaly reduction in comparison with untreated mice, acute phase treatment: 49%
T. cruzi Arequipa strain; 20 mg·kg–1 per day i.p. 5 days from 9 dpi, compared to untreated group
  parasitaemia reactivation after immunosuppression, acute phase treatment: approximately 65%
T. cruzi Arequipa strain; 20 mg·kg–1 per day i.p. 5 days from 9 dpi, necropsy 145 dpi
  parasite-free organs/tissues by PCR, acute phase treatment: 42.9%
T. cruzi Arequipa strain; [18]
  anti-T. cruzi IgG levels (ELISA), chronic phase treatment: similar
  splenomegaly reduction in comparison with untreated mice, chronic phase treatment: 38%
T. cruzi Arequipa strain; 20 mg·kg–1 per day i.p. 5 days from 100 dpi, compared to untreated group
  parasitaemia reactivation after immunosuppression, chronic phase treatment: ~60%
T. cruzi Arequipa strain; 20 mg·kg–1 per day i.p. 5 days from 100 dpi, necropsy 145 dpi
  parasite-free organs/tissues by PCR, chronic phase treatment: 42.9%
T. cruzi Arequipa strain; [19]
  day at which parasitaemia was resolved: 48 dpi
  parasitaemia profile during the acute phase: better activity profile compared to that of BZN
[11]; [20]
  ALP (liver marker): + (+/-, 10-20% increase/decrease over the range)
  ALT/GPT (liver marker): ++ (++/--, 20-30% increase/decrease over the range)
  AST/GOT (liver marker): ++ (++/--, 20-30% increase/decrease over the range)
  CK-MB (heart marker): ++++ (++++/----, ˃ 40% increase/decrease over the range)
  LDH (heart marker): + (+/-, 10-20% increase/decrease over the range)
  Total bilirubin (liver marker): ++ (++/--, 20-30% increase/decrease over the range)
  Urea (kidney marker): -- (++/--, 20-30% increase/decrease over the range)
  Uric acid (kidney marker): ---- (++++/----, ˃ 40% increase/decrease over the range)
[11]; [21]
  ALP (liver marker): ++ (++/--, 20-30% increase/decrease over the range)
  ALT/GPT (liver marker): ++ (++/--, 20-30% increase/decrease over the range)
  AST/GOT (liver marker): = (=, variation ≤ 10%)
  CK-MB (heart marker): = (=, variation ≤ 10%)
  LDH (heart marker): = (=, variation ≤ 10%)
  Total bilirubin (liver marker): + (+/-, 10-20% increase/decrease over the range)
  Urea (kidney marker): = (=, variation ≤ 10%)
  Uric acid (kidney marker): = (=, variation ≤ 10%)
[11]; [22]
  ALP (liver marker): = (=, variation ≤ 10%)
  ALT/GPT (liver marker): ++ (++/--, 20-30% increase/decrease over the range)
  AST/GOT (liver marker): +++ (+++/---, 30-40% increase/decrease over the range)
  CK-MB (heart marker): + (+/-, 10-20% increase/decrease over the range)
  LDH (heart marker): = (=, variation ≤ 10%)
  Total bilirubin (liver marker): +++ (+++/---, 30-40% increase/decrease over the range)
  Urea (kidney marker): --- (+++/---, 30-40% increase/decrease over the range)
  Uric acid (kidney marker): - (+/-, 10-20% increase/decrease over the range)
[11]; [23]
  ALP (liver marker): = (=, variation ≤ 10%)
  ALT/GPT (liver marker): = (=, variation ≤ 10%)
  AST/GOT (liver marker): = (=, variation ≤ 10%)
  CK-MB (heart marker): + (+/-, 10-20% increase/decrease over the range)
  LDH (heart marker): = (=, variation ≤ 10%)
  Total bilirubin (liver marker): ++ (++/--, 20-30% increase/decrease over the range)
  Urea (kidney marker): = (=, variation ≤ 10%)
  Uric acid (kidney marker): - (+/-, 10-20% increase/decrease over the range)
[12]
  inhibition of nucleic acid levels: 47%
Trypanosoma cruzi Fe-SOD
  IC50: 51.9 µM
[13]
  IC50: > 100 µM
